Laboratory results from PubChem BioAssay AID2060607 (Molecular Pharmacology Branch, DTP, NCI, 2025).

Test system: 876862-298-R-J1-PDC complex spheroids, viability % test/control
Experiment: Anticancer human tumor 876862-298-R-J1-PDC patient-derived endometrial carcinoma cell line growth inhibition [CLK]
Conditions: for IC50: curve of first compound; for viability, T/C: stronger effect = lower value
Excerpt: A high-throughput screen of multi-cell type tumor spheroids was designed to identify active combinations of […] and targeted small molecules. Complex spheroids include a stromal component modeled by human endothelial cells (HUVEC) and fibroblasts modeled by human mesenchymal stem cells (MSCs). The concentration ranges selected for each drug and investigational agent were based upon clinically achievable concentrations if the clinical Cmax of the agent was known.
Compounds. The drugs and investigational agents: cirtuvivint (SM08502; NSC835563), CC-671 (NSC850746), vemurafenib (NSC761431), tapotoclax (NSC804041), sotorasib (NSC818433), adagrasib (NSC831453), MRTX-1133 (NSC836407), BAY2416964 (NSC825713), copanlisib (NSC816437), inavolisib (NSC800729), abemaciclib (NSC768073), osimertinib (NSC779217), entinostat (NSC756642), eltanexor (KPT-8602, NSC794443), venetoclax (NSC766270), ceralasertib (NSC777638), bortezomib (NSC756655), olaparib (NSC753686), talazoparib (NSC767125), alisertib (NSC759677), peposertib (NSC802822), gemcitabine (NSC613327), 5-fluorouracil (NSC19893), SN-38 (NSC673596), oxaliplatin (NSC266046), paclitaxel (NSC125973), and doxorubicin (NSC123127), were obtained from the National Cancer Institute (NCI) Developmental Therapeutics Program Chemical Repository. The FDA-approved anticancer drug set is available from the Developmental Therapeutics Program at https://dtp.cancer.gov/organization/dscb/obtaining/available plates.htm. […] The stock solutions were prepared in dimethyl sulfoxide (DMSO, Sigma-Aldrich, St. Louis, MO, cat. D2650), except for the platinum complexes which were prepared in saline (Quality Biological, Gaithersburg, MD, cat. 114-055-101), at 800-fold the tested concentration and stored at -70 degrees C prior to their use. All drugs and investigational agents were tested over a range starting from a high concentration at or near the clinical Cmax and decreasing in half-log increments. If the clinical Cmax for an agent had not been determined, the highest concentration tested was 10 microM.
Cell Culture. All cells were maintained in an incubator at 37 degrees C and 5% CO2 with 95% humidity. The PDC lines were cultured according to standard operating procedures established by the NCI PDMR. Briefly, all PDCs were thawed and cultured in Matrigel-coated flasks prepared with a working solution of 1X Ham's F-12 nutrient mix, without supplementation (Invitrogen, Waltham, MA, cat. 11765054), 100 U/mL penicillin-streptomycin (Invitrogen, cat. 15140122), and 2.5% Matrigel (Corning Inc., Corning, NY, cat. 354248) for the first three passages. The 947758-054-R-J2-PDC line was cultured in 6B/Colon 1A media, which includes advanced DMEM/F-12 (Thermo Fisher Scientific, cat. 12634028), 10 mM HEPES (Thermo Fisher Scientific, cat. 15630080), 1X GlutaMAX supplement (Thermo Fisher Scientific, cat. 35050061), 0.1 mg/mL primocin (InvivoGen, cat. ant-pm-2), 10% defined fetal bovine serum, heat inactivated (HyClone Laboratories Inc., cat. SH30070.03HI), 1.25 mM N-Acetyl-L-cysteine (Sigma-Aldrich, cat. A9165), 10 mM nicotinamide (Sigma-Aldrich, cat. N0636), 1X B-27 supplement (Thermo Fisher Scientific, cat. 17504044), 1X N-2 supplement (Thermo Fisher Scientific, cat. 17502048), and 10 microM Y-27632 dihydrochloride (Tocris Bioscience, cat. 1254). The 876862-298-R-J1-PDC was cultured in 6E media, which includes all 6B/Colon 1A media components plus 50% L-WRN conditioned media (ATCC, cat. CRL-3276), 50 ng/mL recombinant human EGF recombinant protein (hEGF; Thermo Fisher Scientific, cat. PHG0311), 10 ng/mL recombinant human fibroblast growth factor 10 (hGFG-10; PeproTech, cat. 100-26), 1 ng/mL recombinant human fibroblast growth factor 2 (hFGF-2; PeproTech, cat. 100-18B), and 1 µM prostaglandin E2 (PGE2; Tocris, cat. 2296). The 227483-062-R1-J1-PDC line was cultured in Panc media, containing all 6E components except hFGF-2, with the addition of 500 nM SB-431542 (Selleckchem, cat. S1067) and 10 nM gastrin (Tocris, cat. 3006). […]

[1] = second compound 0.0316 µM, first compound 0.0316 µM
[2] = second compound 0.0316 µM, first compound 0.1 µM
[3] = second compound 0.0316 µM, first compound 0.316 µM
[4] = second compound 0.0316 µM, first compound 1 µM
[5] = second compound 0.1 µM, first compound 0.0316 µM
[6] = second compound 0.1 µM, first compound 0.1 µM
[7] = second compound 0.1 µM, first compound 0.316 µM
[8] = second compound 0.1 µM, first compound 1 µM
[9] = second compound 0.316 µM, first compound 0.0316 µM
[10] = second compound 0.316 µM, first compound 0.1 µM
[11] = second compound 0.316 µM, first compound 0.316 µM
[12] = second compound 0.316 µM, first compound 1 µM
[13] = second compound 1 µM, first compound 0.0316 µM
[14] = second compound 1 µM, first compound 0.1 µM
[15] = second compound 1 µM, first compound 0.316 µM
[16] = second compound 1 µM, first compound 1 µM
[17] = second compound 3.16 µM, first compound 0.0316 µM
[18] = second compound 3.16 µM, first compound 0.1 µM
[19] = second compound 3.16 µM, first compound 0.316 µM
[20] = second compound 3.16 µM, first compound 1 µM
[21] = second compound 10 µM, first compound 0.0316 µM
[22] = second compound 10 µM, first compound 0.1 µM
[23] = second compound 10 µM, first compound 0.316 µM
[24] = second compound 10 µM, first compound 1 µM
[25] = second compound 0.0316 µM, first compound 0.00316 µM
[26] = second compound 0.0316 µM, first compound 0.01 µM
[27] = second compound 0.1 µM, first compound 0.00316 µM
[28] = second compound 0.1 µM, first compound 0.01 µM
[29] = second compound 0.316 µM, first compound 0.00316 µM
[30] = second compound 0.316 µM, first compound 0.01 µM
[31] = second compound 1 µM, first compound 0.00316 µM
[32] = second compound 1 µM, first compound 0.01 µM
[33] = second compound 3.16 µM, first compound 0.00316 µM
[34] = second compound 3.16 µM, first compound 0.01 µM
[35] = second compound 10 µM, first compound 0.00316 µM
[36] = second compound 10 µM, first compound 0.01 µM
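Note: spheroids exposed to drugs for 7 days before readout.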
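Throughout, for viability, T/C: 100% = DMSO vehicle control wells.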

CC(Nc1ccc2c(c1)OCCn1cc(N3C(=O)OCC3C(F)F)nc1-2)C(N)=O (stereo unspecified) + CN1CCN(c2cc(C(=O)Nc3cc4cc(-c5cnn(C)c5)ccc4cn3)ccn2)CC1
IC50 (second compound 0.0316 µM): 862 nM | IC50 (second compound 0.1 µM): < 31.6 nM | IC50 (second compound 0.316 µM): < 31.6 nM | IC50 (second compound 1 µM): < 31.6 nM | IC50 (second compound 3.16 µM): < 31.6 nM | IC50 (second compound 10 µM): < 31.6 nM | viability, T/C [1]: 88.6% | viability, T/C [2]: 79% | viability, T/C [3]: 56.9% | viability, T/C [4]: 50% | viability, T/C (second compound 0.0316 µM, first compound 3.16 µM): 38.6% | viability, T/C (second compound 0.0316 µM, first compound 10 µM): 28.6% | viability, T/C [5]: 43% | viability, T/C [6]: 41.3% | viability, T/C [7]: 32.6% | viability, T/C [8]: 25.1% | viability, T/C (second compound 0.1 µM, first compound 3.16 µM): 21.5% | viability, T/C (second compound 0.1 µM, first compound 10 µM): 15.5% | viability, T/C [9]: 3.15% | viability, T/C [10]: 3.14% | viability, T/C [11]: 3.55% | viability, T/C [12]: 2.62% | viability, T/C (second compound 0.316 µM, first compound 3.16 µM): 2.92% | viability, T/C (second compound 0.316 µM, first compound 10 µM): 3.77% | viability, T/C [13]: 0.54% | viability, T/C [14]: 0.79% | viability, T/C [15]: 1.03% | viability, T/C [16]: 0.19% | viability, T/C (second compound 1 µM, first compound 3.16 µM): 0.18% | viability, T/C (second compound 1 µM, first compound 10 µM): 1.05% | viability, T/C [17]: 0.69% | viability, T/C [18]: 2.49% | viability, T/C [19]: 1.55% | viability, T/C [20]: 2.4% | viability, T/C (second compound 3.16 µM, first compound 3.16 µM): 2.04% | viability, T/C (second compound 3.16 µM, first compound 10 µM): 0.86% | viability, T/C [21]: 1.76% | viability, T/C [22]: 0.59% | viability, T/C [23]: 1.6% | viability, T/C [24]: 0.79% | viability, T/C (second compound 10 µM, first compound 3.16 µM): 0.45% | viability, T/C (second compound 10 µM, first compound 10 µM): 1.26%

CCN1CCN(Cc2ccc(Nc3ncc(F)c(-c4cc(F)c5nc(C)n(C(C)C)c5c4)n3)nc2)CC1 + CN1CCN(c2cc(C(=O)Nc3cc4cc(-c5cnn(C)c5)ccc4cn3)ccn2)CC1
IC50 (second compound 0.0316 µM): 678 nM | IC50 (second compound 0.1 µM): < 3.16 nM | IC50 (second compound 0.316 µM): < 3.16 nM | IC50 (second compound 1 µM): < 3.16 nM | IC50 (second compound 3.16 µM): < 3.16 nM | IC50 (second compound 10 µM): < 3.16 nM | viability, T/C [25]: 90.2% | viability, T/C [26]: 81.3% | viability, T/C [1]: 73.3% | viability, T/C [2]: 74.8% | viability, T/C [3]: 52.3% | viability, T/C [4]: 47.5% | viability, T/C [27]: 47% | viability, T/C [28]: 45% | viability, T/C [5]: 44.1% | viability, T/C [6]: 47.3% | viability, T/C [7]: 40.9% | viability, T/C [8]: 43.3% | viability, T/C [29]: 5.03% | viability, T/C [30]: 5.13% | viability, T/C [9]: 6.69% | viability, T/C [10]: 7.27% | viability, T/C [11]: 9.15% | viability, T/C [12]: 9.4% | viability, T/C [31]: 0.94% | viability, T/C [32]: 1.28% | viability, T/C [13]: 1.38% | viability, T/C [14]: 1.66% | viability, T/C [15]: 2.25% | viability, T/C [16]: 3.04% | viability, T/C [33]: 1.66% | viability, T/C [34]: 0.97% | viability, T/C [17]: 1.47% | viability, T/C [18]: 1.34% | viability, T/C [19]: 2.18% | viability, T/C [20]: 3.2% | viability, T/C [35]: 0.6% | viability, T/C [36]: 0.92% | viability, T/C [21]: 1.95% | viability, T/C [22]: 2.18% | viability, T/C [23]: 1.88% | viability, T/C [24]: 2.14%

COc1c(OCCCN2CCOCC2)ccc2c3n(c(=NC(=O)c4cnc(N)nc4)nc12)CCN3 + CN1CCN(c2cc(C(=O)Nc3cc4cc(-c5cnn(C)c5)ccc4cn3)ccn2)CC1
IC50 (second compound 0.0316 µM): 48.3 nM | IC50 (second compound 0.1 µM): < 3.16 nM | IC50 (second compound 0.316 µM): < 3.16 nM | IC50 (second compound 1 µM): < 3.16 nM | IC50 (second compound 3.16 µM): < 3.16 nM | IC50 (second compound 10 µM): < 3.16 nM | viability, T/C [25]: 90.4% | viability, T/C [26]: 74.4% | viability, T/C [1]: 65.2% | viability, T/C [2]: 26.8% | viability, T/C [3]: 16.7% | viability, T/C [4]: 17.8% | viability, T/C [27]: 47.1% | viability, T/C [28]: 40% | viability, T/C [5]: 28.3% | viability, T/C [6]: 14.6% | viability, T/C [7]: 11.1% | viability, T/C [8]: 13.2% | viability, T/C [29]: 4.86% | viability, T/C [30]: 2.92% | viability, T/C [9]: 3.87% | viability, T/C [10]: 3.03% | viability, T/C [11]: 3.72% | viability, T/C [12]: 2.59% | viability, T/C [31]: 0.47% | viability, T/C [32]: 1.56% | viability, T/C [13]: 0.48% | viability, T/C [14]: 0.16% | viability, T/C [15]: 1.64% | viability, T/C [16]: 1.15% | viability, T/C [33]: 1.02% | viability, T/C [34]: 1.06% | viability, T/C [17]: 1.3% | viability, T/C [18]: 1.09% | viability, T/C [19]: 1.55% | viability, T/C [20]: 0.99% | viability, T/C [35]: 0.74% | viability, T/C [36]: 1.11% | viability, T/C [21]: 0.45% | viability, T/C [22]: 1.75% | viability, T/C [23]: 2.12% | viability, T/C [24]: 1.84%
